Literature values in US20110237925A1, “MICRONEEDLE ARRAY CHIP, DEVICE AND PATCH FOR TRANSDERMAL DRUG DELIVERY UTILIZING THE SAME, AND PREPARATION METHOD THEROF” (priority 2010, published 2011).

Settings: solid silicon microneedle array prepared through MEMS technology

increase of the transdermal permeability: four orders of magnitude
SMILES: O=C(O)CN(CC(=O)O)Cc1cc2c(cc1O)Oc1cc(O)c(CN(CC(=O)O)CC(=O)O)cc1C21OC(=O)c2ccccc21 [calcein]
